Measured values reported in article PMC11310889, “Ribosomal translation of fluorinated non-canonical amino acids for de novo biologically active fluorinated macrocyclic peptides” (Chemical Science, 2024).

How the values were obtained:
[1] = test system: E. coli W3110; test: Protein leakage assay; assay type: cell-based, Escherichia coli; settings: E. coli W3110, 5 μM peptide, 15 min, pellet analysed by SDS-PAGE, compared to R9-treated sample (Fig. S10)
Method: Thaw the previously preserved E. coli W3110 cells from the -80 °C freezer. Scrape a small amount and inoculate it into 1 mL of LB liquid medium. Incubate overnight in a 37°C shaker. Next day, transfer the culture to fresh LB liquid medium at a 1:100 inoculation ratio and incubate at 37 °C until the OD600 reaches approximately 0.47 to 0.53. Collect 300 μL of the E. coli W3110 cells and centrifuge for 2 min at 13,000 rpm, discarding the supernatant afterward. Resuspend the untreated group in 300 μL of PBS, and the peptide treatment group in 297 μL of ddH2O. Add 3 μL of 0.5 mM different peptides to the treatment group, mix well, and allow to react for 15 min. After the treatment, resuspend all samples in 15 μL of 6×SDS loading buffer and 15 μL of 10% SDS. All samples were heated at 99.9°C for 15 min, followed by 10% SDS-PAGE analysis and staining with Coomassie brilliant blue R250. […]
(§1) Incubate overnight in a 37°C shaker. […]

[2] = test system: E. coli W3110; test: Propidium iodide (PI) assay of membrane permeability; assay type: cell-based, Escherichia coli; settings: E. coli W3110 logarithmic-phase, 15 min treatment with 5 μM peptide, PI 25 μg/mL 15 min (Fig. 5A)
Method: Propidium Iodide (PI) assay
Thaw the previously preserved E. coli W3110 cells from the -80 °C freezer. Scrape a small amount and inoculate it into 1 mL of LB liquid medium. Culture overnight in a 37°C shaker. Next day, inoculate the strain into fresh LB liquid medium at a 1:100 ratio and incubate at 37 °C until the OD600 reaches approximately 0.47 to 0.53. Take 100 μL of the E. coli W3110 cells and centrifuge for 2 min at 13,000 rpm. Discard the supernatant. For the untreated group, resuspend the cells in 100 μL of PBS. For the peptide treatment group, resuspend the cells in 99 μL of ddH2O and add 1 […]
μL of 0.5 mM of the different peptides. Mix thoroughly and let react for 15 min. After the treatment, take 80 μL of each sample and incubate with PI at a final concentration of 25 μg/mL for 15 min.
After incubation, wash the samples with the same amount of PBS, centrifuge, and resuspend at a 10-fold concentration. Observe the images using a Nikon Eclipse Ci-L Plus microscope. […]
as §1
Centrifuge again at
6100g for 10 min, discard the supernatant, and add 500 μL of ddH2O containing 2.5% glutaraldehyde. Resuspend and fix the cells overnight at 4°C. Centrifuge at 6100g for 10 min, remove the supernatant, and wash twice with ddH2O, letting it stand for 15 min each time, followed by centrifugation at 6100g for 10 min. Discard the supernatant. Dehydrate the sample with ethanol at concentration gradients of 30%, 60%, and 90%, without resuspension, centrifuging at 6100g for […]

Question: Which results are given for “Ac-(4-F-DPhe)KHFIY(4-F-β-Phe)YRSPICGS(Acp)RRRRRRRRR-NH2 (sidechain bridge or staple) [BAM-β3-R9, BAM-β3 conjugated with cell-penetrating peptide R9]”?
Answer: cellular protein leakage [1]: partial cellular protein leakage; PI red fluorescence (cell membrane permeability) [2]: notable red fluorescence intensity

Question: Which cellular protein leakage [1] does the source give for “Ac-(4-F-DPhe)IWHKSLT(4-F-DPhe)NYLHTCGS(Acp)RRRRRRRRR-NH2 (sidechain bridge or staple) [BAM-f2-R9, BAM-f2 conjugated with cell-penetrating peptide R9]” here?
Answer: partial cellular protein leakage

Question: And the “PI red fluorescence (cell membrane permeability)” value [2]?
Answer: notable red fluorescence intensity
